Measured values reported in US9260486B2 (The University of Vermont and State Agricultural College, priority 2012, dated 2016).
Values belong to the compound of their own block, whether it stands above or below them. Residues, ends and D or L forms follow the SMILES beside them.

Tests used:
PKG Iα [1] = molecular target: T1, PKG Iα (Bos taurus, UniProt P00516); assay: 32P-incorporation assay, activation of PKG Iα by SW peptides; format: biochemical
T1 construct: made in house
T1 sequence (P00516 1-671): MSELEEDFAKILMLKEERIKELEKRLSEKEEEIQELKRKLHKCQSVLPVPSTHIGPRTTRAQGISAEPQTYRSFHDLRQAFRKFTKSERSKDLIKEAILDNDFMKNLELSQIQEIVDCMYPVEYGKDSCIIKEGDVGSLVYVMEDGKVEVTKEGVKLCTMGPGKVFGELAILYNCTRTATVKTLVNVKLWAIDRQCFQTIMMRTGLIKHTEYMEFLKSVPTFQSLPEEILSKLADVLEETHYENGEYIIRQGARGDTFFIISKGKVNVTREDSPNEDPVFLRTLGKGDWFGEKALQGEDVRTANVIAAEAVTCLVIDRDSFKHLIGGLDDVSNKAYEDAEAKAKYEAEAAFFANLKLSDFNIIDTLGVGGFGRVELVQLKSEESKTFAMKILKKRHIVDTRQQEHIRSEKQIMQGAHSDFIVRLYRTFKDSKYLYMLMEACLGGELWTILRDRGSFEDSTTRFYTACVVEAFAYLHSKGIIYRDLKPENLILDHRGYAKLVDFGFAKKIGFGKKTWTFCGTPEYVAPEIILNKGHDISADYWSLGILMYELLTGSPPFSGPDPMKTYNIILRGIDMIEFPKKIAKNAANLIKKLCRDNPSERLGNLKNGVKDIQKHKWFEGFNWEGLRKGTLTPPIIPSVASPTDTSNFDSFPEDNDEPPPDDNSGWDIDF
Source text: Starting with the 29-mer peptide (329-358), covering the full length of the switch helix, an array of peptide derivatives were synthesized to study the contributions from different segments of the SW helix peptide towards the functional phenotype of PKG Iα. Circular dichroism spectroscopy confirmed that the 29-mer SW peptide adopted a helical secondary structure. […] The activity of this short peptide is surprising. To activate the kinase, this non-helical 8-mer peptide first has to adopt the active helical conformation to activate PKG. However, this finding provides critical support in favor that the confined knob/nest interaction site may serve as a novel target site for non-cyclic nucleotide driven activation of PKG.
The isolation of the SW independent from the kinase allows us to discretely probe the nest in future studies using native and non-native amino acids. Moreover, the use of the SW: 329-358 allows us to answer more fundamental questions about the nature of the regulatory and catalytic domains and the communication between the B-site and the nest. […] The structure of this inhibitor contains a β-phenyl-1,N^2-etheno group attached to the pyrimidine ring. We hypothesized previously, based upon structural observations, that the presence of this phenyl group in the syn orientation effectively blocks PBC closure and reduces the potency of the SW:329-358 in a dose-dependent manner.
Determination of activation constants was performed using a [γ-^32P]-ATP transfer assay as previously reported (Ruth et al., 1991; Tegge et al., 1995). […] Aliquots, spotted on P81 Whatman paper were subjected to scintillation counting. All experiments were performed in the presence of the PKA-specific inhibitor, PKI^5-24 (70 nM) to suppress endogenous PKA activity.

PKG Iα [2] = molecular target: T1, PKG Iα; settings: Butt et al., 1995; cited from earlier work
KCa1.1 channels = assay: Inside-out patch clamp, open probability of single KCa1.1 channels in membrane patches from VSM cells reconstituted with recombinant PKG; format: cell-based; settings: rat posterior cerebral artery VSM cells, with PKG Iα and ATP
Source text: FIG. 4: SW:329-358 activates single KCa channels in inside-out membrane patches excised from cerebral artery myocytes.
Once we had supporting evidence that molecules carrying the knob-type ligand conformation were capable of activating PKG we set out to determine if this novel mechanism of kinase activation was functionally relevant. The high conductance calcium-activated potassium channel KCa1.1 is a well-established intracellular target of […] in vascular smooth muscle (VSM) cells. Using inside-out patch clamp configurations from freshly dissociated VSM cells from rat posterior cerebral arteries, we measured the changes of open probability (NPO) of single KCa1.1 channels in response to PKG stimulation in membrane patches excised from freshly-dissociated vascular smooth muscle cells (FIG. 4).

Compound: CC(C)C[C@H](NC(=O)[C@H](CC(N)=O)NC(=O)[C@H](C)NC(=O)[C@H](Cc1ccccc1)NC(=O)[C@H](Cc1ccccc1)NC(=O)[C@H](C)NC(=O)[C@H](C)N)C(=O)N[C@@H](CCCCN)C(=O)O [SW:348-355] (H-AAFFANLK-OH; N-terminus and C-terminus assumed)
Emax (PKG Iα [1]; read-out: activation relative to activation associated with cGMP, 8-mer knob peptide): 30%

Compound: O=c1c2nc(Br)n([C@@H]3O[C@@H]4CO[P@@](O)(=S)O[C@H]4[C@H]3O)c2nc2[nH]c(-c3ccccc3)cn12 [Rp-PET, (RP)-8-Br-PET-cGMPS]
effect of Rp-PET on activation constant of PKG Iα by SW:329-358 (PKG Iα [1]; Rp-PET titrated into activation reactions): linear response of the activation constant to the amount of Rp-PET titrated | affinity for PKG Iα regulatory domain binding sites relative to cGMP (PKG Iα [2]): higher affinity for the PHG Iα regulatory domain binding sites than cGMP

activation of PKG Iα (PKG Iα [1]; under cGMP priming conditions): completely inactive
Compound: SW:329-349: SW-peptide derivative with additional removal of the knob residues (DVSNKAYEDAEAKAKYEAEAA)

Compound: Nc1nc2c(ncn2[C@@H]2O[C@@H]3COP(=O)(O)O[C@H]3[C@H]2O)c(=O)[nH]1 [cGMP]
KCa1.1 channel open probability (NPO) (KCa1.1 channels): significantly increased
